Experimental data published in ChEMBL document CHEMBL1201862, “PubChem BioAssay data set” (2004).
Several values for one entry are separate records, joined by “and”; a condition that tells them apart may be missing. Identical values can stand only once. Activity calls are given as the source filed them.

Target: Cytochrome P450 2C19 (Homo sapiens, UniProt P33261)
Assay: Cytochrome panel assay with activity outcomes. Panel member name: p450-cyp2c19 Compounds with AC50 equal or less than 10 uM are considered active
Format: functional
Settings: read-out: AC50

Cytochrome P450 2C19, sequence (P33261 whole entry): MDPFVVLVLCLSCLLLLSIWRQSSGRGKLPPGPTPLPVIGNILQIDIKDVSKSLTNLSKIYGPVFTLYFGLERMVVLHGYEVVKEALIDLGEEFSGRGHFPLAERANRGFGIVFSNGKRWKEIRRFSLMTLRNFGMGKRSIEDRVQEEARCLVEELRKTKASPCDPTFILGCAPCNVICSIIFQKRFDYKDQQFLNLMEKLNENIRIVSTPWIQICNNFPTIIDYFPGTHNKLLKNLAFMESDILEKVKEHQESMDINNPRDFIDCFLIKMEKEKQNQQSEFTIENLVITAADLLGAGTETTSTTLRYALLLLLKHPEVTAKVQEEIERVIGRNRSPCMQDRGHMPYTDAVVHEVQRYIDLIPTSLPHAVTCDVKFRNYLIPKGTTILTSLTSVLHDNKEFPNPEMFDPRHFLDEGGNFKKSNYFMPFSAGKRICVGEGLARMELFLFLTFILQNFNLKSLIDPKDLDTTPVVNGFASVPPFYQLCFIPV

Row | Structure (SMILES) | AC50
1 | CCOCCN1CCC(OC(C)=O)C(C)C1 (centres undefined) | 3.16 µM (inconclusive)

Test system: not listed separately
Assay: Shn3 3'UTR reporter inhibitors, dose response, cell-based, Clone20 osteoblasts, firefly luciferase, cherry-picked (AID 624132);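 also: firefly luciferase luminescence from reporter carrying the Shn3 3'UTR in osteoblasts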
Format: functional
Settings: not given

Row | Structure (SMILES) | AC50
2 | COc1cc(OC)c(OC)cc1CNc1cc(C)ccc1OC | 18.1 µM (active)
3 | CN(c1cccc(Cl)c1)S(=O)(=O)c1cccc(C(=O)NCc2ccncc2)c1 | < 0.26 µM (active)
4 | Cc1ccc(S(=O)(=O)N2CCN(c3ncnc4sccc34)CC2)cc1C | 3.53 µM (active)
5 | O=C(OCC12CC3CC(CC(C3)C1)C2)c1ccc(NCc2cc(O)ccc2O)cc1 | 3.25 µM (active)

Test system: not listed separately
Assay: HepG2 cell cytotoxicity, dose response, cytotoxicity control for Shn3 inhibitor project, CellTiter-Glo, cherry-picked (AID 624134)
Format: functional, cell-based
Settings: not given

Row | Structure (SMILES) | AC50
6 | COc1cc(OC)c(OC)cc1CNc1cc(C)ccc1OC | 47.2 µM (active)
7 | CN(c1cccc(Cl)c1)S(=O)(=O)c1cccc(C(=O)NCc2ccncc2)c1 | 61.5 µM (active)
8 | Cc1ccc(S(=O)(=O)N2CCN(c3ncnc4sccc34)CC2)cc1C | 5.96 µM (active)
9 | O=C(OCC12CC3CC(CC(C3)C1)C2)c1ccc(NCc2cc(O)ccc2O)cc1 | 66.7 µM (active)

Target: T1, Corticotropin-releasing factor receptor 2/Corticotropin-releasing factor-binding protein (Homo sapiens, UniProt P24387+Q13324)
T1 sequence (Q13324 whole entry): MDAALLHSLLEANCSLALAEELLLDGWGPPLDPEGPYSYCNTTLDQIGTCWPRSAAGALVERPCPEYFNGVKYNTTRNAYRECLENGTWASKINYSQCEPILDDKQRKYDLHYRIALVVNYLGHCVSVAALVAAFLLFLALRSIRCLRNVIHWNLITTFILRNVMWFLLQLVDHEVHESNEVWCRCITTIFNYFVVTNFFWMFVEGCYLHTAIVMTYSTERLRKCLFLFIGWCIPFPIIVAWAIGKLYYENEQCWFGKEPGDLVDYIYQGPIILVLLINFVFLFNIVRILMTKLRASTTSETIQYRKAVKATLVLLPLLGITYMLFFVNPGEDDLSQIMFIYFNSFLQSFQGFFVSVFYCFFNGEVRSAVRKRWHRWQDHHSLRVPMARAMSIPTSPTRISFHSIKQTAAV
T1 sequence (P24387 whole entry): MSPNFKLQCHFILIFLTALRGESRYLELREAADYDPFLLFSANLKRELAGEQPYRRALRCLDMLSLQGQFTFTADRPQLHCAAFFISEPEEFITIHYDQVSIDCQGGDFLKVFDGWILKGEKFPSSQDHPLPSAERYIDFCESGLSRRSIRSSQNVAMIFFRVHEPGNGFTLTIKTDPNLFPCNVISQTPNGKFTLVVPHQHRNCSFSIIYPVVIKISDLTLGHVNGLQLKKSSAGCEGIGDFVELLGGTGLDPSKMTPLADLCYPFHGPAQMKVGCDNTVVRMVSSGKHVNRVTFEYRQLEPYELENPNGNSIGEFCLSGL
Assay: activators of CRF receptor 2 with binding protein – uHTS hits, confirmation (AID 602473)
Format: functional
Settings: read-out: EC50_Mean

Row | EC50 | Structure (SMILES)
10 | 5.65 µM (active) | O=S(=O)(NCC1(N2CCOCC2)CCCCC1)c1ccc(Cl)cc1C(F)(F)F
11 | 15 µM (active) | CCOC(=O)c1sc(NC(=S)NC(=O)c2cccc(OC)c2)nc1C
12 | 12.1 µM (active) | Cc1ccc2oc(=O)c(/C=C(\O)c3ccccc3)nc2c1
13 | > 53 µM (inactive) | Clc1ccc(NN(Cc2ccncc2)c2ccc(Cl)cc2)cc1
14 | 5.95 µM (active) | COCCNC(=S)N/N=C/c1ccc(-c2ccc([N+](=O)[O-])cc2)o1

Test system: not listed separately
Assay: control 3'UTR Renilla luciferase suppression, dose response, counter-screen for Shn3 inhibitor project, cell-based, Clone20-Shn3RL, cherry-picked (AID 624133)
Format: functional
Settings: not given

Row | Structure (SMILES) | AC50
15 | COc1cc(OC)c(OC)cc1CNc1cc(C)ccc1OC | 7.92 µM (active)
16 | CN(c1cccc(Cl)c1)S(=O)(=O)c1cccc(C(=O)NCc2ccncc2)c1 | 0.664 µM (active)
17 | Cc1ccc(S(=O)(=O)N2CCN(c3ncnc4sccc34)CC2)cc1C | 6.17 µM (active)
18 | O=C(OCC12CC3CC(CC(C3)C1)C2)c1ccc(NCc2cc(O)ccc2O)cc1 | 7.26 µM (active)

Target: T2, Rac GTPase-activating protein 1 (Homo sapiens, UniProt Q9H0H5)
T2 sequence (Q9H0H5 whole entry): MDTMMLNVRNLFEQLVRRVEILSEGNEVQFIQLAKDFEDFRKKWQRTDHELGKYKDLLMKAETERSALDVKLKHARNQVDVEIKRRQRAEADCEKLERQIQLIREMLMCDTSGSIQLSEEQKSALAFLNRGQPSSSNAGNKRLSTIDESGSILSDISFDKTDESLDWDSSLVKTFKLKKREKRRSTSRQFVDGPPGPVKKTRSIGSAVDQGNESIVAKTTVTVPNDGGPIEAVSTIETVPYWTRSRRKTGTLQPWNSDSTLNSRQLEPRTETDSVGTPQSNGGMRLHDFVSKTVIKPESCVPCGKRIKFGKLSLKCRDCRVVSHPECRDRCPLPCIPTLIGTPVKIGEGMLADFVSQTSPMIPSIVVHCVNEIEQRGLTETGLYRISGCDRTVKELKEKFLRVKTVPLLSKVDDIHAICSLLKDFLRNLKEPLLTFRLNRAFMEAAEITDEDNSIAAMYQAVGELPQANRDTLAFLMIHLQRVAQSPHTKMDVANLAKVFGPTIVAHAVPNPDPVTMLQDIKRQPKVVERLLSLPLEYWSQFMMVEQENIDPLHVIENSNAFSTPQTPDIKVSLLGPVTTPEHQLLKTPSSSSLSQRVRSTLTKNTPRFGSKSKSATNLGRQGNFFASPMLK
Assay: MgcRacGAP GTPase-activating activity inhibitors, confirmation, biochemical, ADP Hunter fluorescence, primary and confirmatory (AID 624330)
Format: functional
Settings: not given

Row | IC50 | Structure (SMILES)
19 | 139 µM (active) | O=C(Cn1c(C(=O)NCc2ccco2)cc2sccc21)c1ccccc1
20 | 126 µM (active) | COc1ccc(-c2ncc3ccccn23)cc1OC
21 | 123 µM (active) | Cc1ccccc1CN(C)CCc1ccccn1
22 | 48.6 µM (active) | Cc1ccc2oc(=O)c(/C=C(\O)c3ccccc3)nc2c1
23 | 61.5 µM (active) | CCOc1cc(/C=N/NC(=O)CCn2nc(C)cc2C)ccc1O

Target: Cytochrome P450 2D6 (Homo sapiens, UniProt P10635);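 also: CYP2D6 member of a cytochrome P450 panel assay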
Sequence (P10635 whole entry): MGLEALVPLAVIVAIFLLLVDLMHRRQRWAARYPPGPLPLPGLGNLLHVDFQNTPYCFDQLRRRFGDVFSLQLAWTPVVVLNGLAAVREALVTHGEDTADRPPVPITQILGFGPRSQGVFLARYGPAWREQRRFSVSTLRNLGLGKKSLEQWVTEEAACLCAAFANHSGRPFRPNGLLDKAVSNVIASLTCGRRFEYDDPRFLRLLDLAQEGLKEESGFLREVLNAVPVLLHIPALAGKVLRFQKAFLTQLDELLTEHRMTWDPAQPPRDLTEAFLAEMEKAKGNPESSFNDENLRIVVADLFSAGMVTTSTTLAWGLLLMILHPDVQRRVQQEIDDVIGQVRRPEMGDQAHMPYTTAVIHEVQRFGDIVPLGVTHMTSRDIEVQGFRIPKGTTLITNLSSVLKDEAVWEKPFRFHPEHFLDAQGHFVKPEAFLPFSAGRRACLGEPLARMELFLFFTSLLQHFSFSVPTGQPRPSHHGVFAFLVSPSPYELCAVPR
Assay: not given
Settings: not given

Row | AC50 | Structure (SMILES)
24 | 12.6 µM (inconclusive) | CCNc1ncc2nc(-c3cn(C)c4ccccc34)c(=O)n(C)c2n1
25 | 25.1 µM (inconclusive) | O=C(c1ccco1)N1CCC[C@@]2(CCN(c3ccncc3)C2)C1
26 | 17.8 µM (inconclusive) | Cc1cccc(Oc2ncc(-c3ccc(Cl)cc3)cn2)c1C
27 | 2.51 µM (inconclusive) | Cc1cc2c(nc1C)CCCN2C[C@H](C)O/N=C1/[C@H]2O[C@@H]2[C@@H](O)[C@H]2[C@H]1CCn1c(=O)n(-c3ccccc3)c(=O)n12
28 | 10 µM (inconclusive) | N#Cc1ccc(C(c2nnnn2C2CCCC2)N2CCC(Cc3ccccc3)CC2)cc1 (centres undefined)

Row | Structure (SMILES) | AC50
29 | C/C=C1\C[N@@+]2(C)CC[C@@]34C(=C(C=O)[C@H]1C[C@H]32)Nc1ccccc14 | 6.31 µM (inconclusive)
30 | CCOCCN1CCC(OC(C)=O)C(C)C1 (centres undefined) | 12.6 µM (inconclusive)
31 | COc1ccccc1N1CCN(CCCCN2C(=O)c3ccccc3C2=O)CC1 [NAN-190] | 12.6 µM (inconclusive) and 10 µM (inconclusive)

Target: Cytochrome P450 3A4 (Homo sapiens, UniProt P08684);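 also: CYP3A4 tested as one member of a cytochrome P450 panel screen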
Sequence (P08684 whole entry): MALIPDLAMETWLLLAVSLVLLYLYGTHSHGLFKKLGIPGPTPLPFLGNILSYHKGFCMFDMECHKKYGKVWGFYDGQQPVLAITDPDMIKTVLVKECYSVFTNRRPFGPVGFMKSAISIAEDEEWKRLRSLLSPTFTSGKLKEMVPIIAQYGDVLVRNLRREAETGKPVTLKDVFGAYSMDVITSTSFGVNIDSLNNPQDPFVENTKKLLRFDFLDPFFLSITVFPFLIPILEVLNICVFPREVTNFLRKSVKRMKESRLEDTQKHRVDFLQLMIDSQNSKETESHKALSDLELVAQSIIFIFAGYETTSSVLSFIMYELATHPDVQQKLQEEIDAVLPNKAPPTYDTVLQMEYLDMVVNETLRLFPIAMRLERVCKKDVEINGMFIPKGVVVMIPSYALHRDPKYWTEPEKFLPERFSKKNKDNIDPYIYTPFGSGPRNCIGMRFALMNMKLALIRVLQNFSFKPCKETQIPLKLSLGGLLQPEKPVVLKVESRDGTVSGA
Assay: not given
Settings: not given

Row | AC50 | Structure (SMILES)
32 | 10 µM (inconclusive) | CCNc1ncc2nc(-c3cn(C)c4ccccc34)c(=O)n(C)c2n1
33 | 25.1 µM (inconclusive) | Cc1cccc(Oc2ncc(-c3ccc(Cl)cc3)cn2)c1C
34 | 6.31 µM (inconclusive) | Cc1cc2c(nc1C)CCCN2C[C@H](C)O/N=C1/[C@H]2O[C@@H]2[C@@H](O)[C@H]2[C@H]1CCn1c(=O)n(-c3ccccc3)c(=O)n12

Row | Structure (SMILES) | AC50
35 | C/C=C1\C[N@@+]2(C)CC[C@@]34C(=C(C=O)[C@H]1C[C@H]32)Nc1ccccc14 | 0.00126 µM (inconclusive)
36 | COc1ccccc1N1CCN(CCCCN2C(=O)c3ccccc3C2=O)CC1 [NAN-190] | 31.6 µM (inconclusive) and 1.58 µM (inconclusive)

Target: Cytochrome P450 2C9 (Homo sapiens, UniProt P11712)
Sequence (P11712 whole entry): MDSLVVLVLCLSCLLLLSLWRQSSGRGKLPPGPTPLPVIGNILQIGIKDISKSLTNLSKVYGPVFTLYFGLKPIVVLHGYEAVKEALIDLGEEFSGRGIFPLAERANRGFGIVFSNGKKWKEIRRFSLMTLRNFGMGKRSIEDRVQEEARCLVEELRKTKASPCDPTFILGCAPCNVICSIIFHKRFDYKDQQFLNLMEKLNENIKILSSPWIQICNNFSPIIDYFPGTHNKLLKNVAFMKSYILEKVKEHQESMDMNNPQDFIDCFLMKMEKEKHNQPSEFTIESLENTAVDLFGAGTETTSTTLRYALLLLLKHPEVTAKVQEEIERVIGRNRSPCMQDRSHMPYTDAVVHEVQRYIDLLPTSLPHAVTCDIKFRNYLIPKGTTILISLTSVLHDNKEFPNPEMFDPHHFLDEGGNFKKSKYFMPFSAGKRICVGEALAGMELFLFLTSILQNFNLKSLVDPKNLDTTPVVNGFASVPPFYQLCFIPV
Assay: not given
Settings: not given

Row | AC50 | Structure (SMILES)
37 | 39.8 µM (inconclusive) | CCNc1ncc2nc(-c3cn(C)c4ccccc34)c(=O)n(C)c2n1
38 | 15.8 µM (inconclusive) | O=C(c1ccco1)N1CCC[C@@]2(CCN(c3ccncc3)C2)C1
39 | 11.2 µM (inconclusive) | N#Cc1ccc(C(c2nnnn2C2CCCC2)N2CCC(Cc3ccccc3)CC2)cc1 (centres undefined)
